According to patent US5565480A, “Substituted histidines” (SmithKline Beecham Corporation, priority 1995, dated 1996):

Test system: pressor response to exogenous angiotensin II
Test: Inhibition of pressor response to angiotensin II in conscious rats
Assay type: in vivo
Conditions: Rattus norvegicus, iv, change in mean arterial pressure, read-out: IC50, dose of compound needed to produce 50% inhibition of the control response to angiotensin II
Procedure: Angiotensin II antagonist activity of the compounds of Formula (I) is assessed by in and in vivo methods. In vitro antagonist activity is determined by the ability of the compounds to compete with ^125 I-angiotensin II for binding to vascular angiotensin II receptors and by their ability to antagonize the contractile response to angiotensin II in the isolated rabbit aorta. In vivo activity is evaluated by the efficacy of the compounds to inhibit the pressor response to exogenous angiotensin II in conscious rats and to lower blood pressure in a rat model of renin dependent hypertension.
Rats are prepared with indwelling femoral arterial and venous catheters and a stomach tube (Gellai et al., Kidney Int. 15:419, 1979). Two to three days following surgery the rats are placed in a restrainer and blood pressure is continuously monitored from the arterial catheter with a pressure transducer and recorded on a polygraph. The change in mean arterial pressure in response to intravenous injections of […] angiotensin II is compared at various time points prior to and following the administration of the compounds intravenously or orally at doses of 3 to 300 mg/kg. The dose of compound needed to produce 50% inhibition of the control response to angiotensin II (IC50) is used to estimate the potency of the compounds. […]

Compound: CCCCc1ncc(C[C@H](NC(=O)CCC)C(=O)O)n1Cc1ccccc1Cl [Example 8, 3-[(2-Chlorophenyl)methyl]-2-n-butyl-N-butyrylhistidine]
- ED50: 10 mg/kg
